Laboratory results: US11339156B2, “3-(1H-pyrazol-4-yl)pyridine allosteric modulators of the M4 muscarinic acetylcholine receptor” (Merck Sharp & Dohme Corp., priority 2017, dated 2022)

target: T1, human M4 muscarinic acetylcholine receptor (Homo sapiens, UniProt P08173); test: human FLIPR-based M4 PAM assay (CHO-K1 cells with human M4 receptor and Gαqi5, calcium dye fluorescence); format: cell-based; settings: inflection point of 4 parameter logistic fit; acetylcholine added at 20% of maximum response; read-out: M4PAM IP
T1 construct: expressed in transfected cells
T1 sequence (P08173 1-479): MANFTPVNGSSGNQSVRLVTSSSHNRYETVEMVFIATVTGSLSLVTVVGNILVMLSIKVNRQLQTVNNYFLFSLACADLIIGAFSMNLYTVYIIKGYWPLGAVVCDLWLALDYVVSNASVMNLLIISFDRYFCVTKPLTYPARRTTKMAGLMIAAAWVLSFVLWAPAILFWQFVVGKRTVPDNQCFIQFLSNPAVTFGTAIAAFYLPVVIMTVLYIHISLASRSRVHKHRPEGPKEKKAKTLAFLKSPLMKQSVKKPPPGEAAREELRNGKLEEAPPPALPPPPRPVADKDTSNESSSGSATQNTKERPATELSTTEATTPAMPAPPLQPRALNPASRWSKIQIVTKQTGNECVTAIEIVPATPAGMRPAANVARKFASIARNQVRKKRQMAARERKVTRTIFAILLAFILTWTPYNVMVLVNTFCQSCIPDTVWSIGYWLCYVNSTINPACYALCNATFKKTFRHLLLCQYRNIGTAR
Outline: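 CHO-K1 cells were loaded with calcium dye at 37 °C for ~1 h. Fluorescence (ex 470–495/em 515–575 nm) was read for 4 min after test compound at increasing concentrations, then 3.5 min after acetylcholine at an EC20; sometimes a third addition at EC70 followed. The value is the inflection point of a 4-parameter logistic fit.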

SMILES | EC50
Cc1ccc(-c2cnn(CC(C)C)c2)c(-c2ccc3c(c2)C(=O)N(C2CC2)C3)n1 [Example 96, 2-cyclopropyl-6-{6-methyl-3-[1-(2-methylpropyl)-1H-pyrazol-4-yl]pyridin-2-yl}-2,3-dihydro-1H-isoindol-1-one] | 197 nM
CC(C)(C)Cn1cc(-c2ccc(C3CC3)nc2-c2ccn3ccnc3c2)cn1 [Example 99, 7-{6-cyclopropyl-3-[1-(2,2-dimethylpropyl)-1H-pyrazol-4-yl]pyridin-2-yl}imidazo[1,2-a]pyridine] | 152 nM
CC(C)(C)Cn1cc(-c2ccc(OC(F)(F)F)nc2-c2ccn3ccnc3c2)cn1 [Example 100, 7-{3-[1-(2,2-dimethylpropyl)-1H-pyrazol-4-yl]-6-(trifluoromethoxy)pyridin-2-yl}imidazo [1,2-a]pyridine] | 211 nM
Cc1nc2cc(-c3nc(C#N)ccc3-c3cnn(CC(C)(C)C(F)(F)F)c3)ccn2n1 [Example 101, 6-(2-methyl[1,2,4]triazolo [1,5-a]pyridin-7-yl)-5-[1-(3,3,3-trifluoro-2,2-dimethylpropyl)-1H-pyrazol-4-yl]pyridine-2-carbonitrile] | 58 nM
Cc1nc2cc(-c3ncccc3-c3cnn(CC(C)(C)C(C)(F)F)c3)ccc2n1C [Example 102, 5-{3-[1-(3,3-difluoro-2,2-dimethylbutyl)-1H-pyrazol-4-yl]pyridin-2-yl}-1,2-dimethyl-1H-benzimidazole] | 113 nM
Cc1nc2cc(-c3ncc(F)cc3-c3cnn(CC(C)(C)C(C)(F)F)c3)ccc2n1C [Example 103, 5-(3-(1-(3,3-difluoro-2,2-dimethylbutyl)-1H-pyrazol-4-yl)-5-fluoropyridin-2-yl)-1,2-dimethyl-1H-benzo[d]imidazole] | 117 nM
COCc1nc2cc(-c3nc(C#N)ccc3-c3cnn(CC(C)(C)C)c3)ccn2n1 [Example 105, 5-[1-(2,2-dimethylpropyl)-1H-pyrazol-4-yl]-6-[2-(methoxymethyl)[1,2,4]triazolo[1,5-a]pyridin-7-yl]pyridine-2-carbonitrile] | 70.5 nM
Cc1cn2ccc(-c3ncc(F)cc3-c3cnn(CC(C)(C)C(F)F)c3)cc2n1 [Example 106, 7-{3-[1-(3,3-difluoro-2,2-dimethylpropyl)-1H-pyrazol-4-yl]-5-fluoropyridin-2-yl}-2-methylimidazo[1,2-a]pyridine] | 69.5 nM
Cc1ccc(-c2cnn(CC3CC3(C)C)c2)c(-c2ccn3ccnc3c2)n1 (centres unmarked) [Example 109, 7-(3-{1-[(2,2-dimethylcyclopropyl)methyl]-1H-pyrazol-4-yl}-6-methylpyridin-2-yl)imidazo[1,2-a]pyridine] | 75.9 nM
CC(C)CCn1cc(-c2ccc(Cl)nc2-c2ccc3c(c2)C(=O)N(Cc2ccccn2)C3)cn1 [Example 112, 6-{6-chloro-3-[1-(3-methylbutyl)-1H-pyrazol-4-yl]pyridin-2-yl}-2-(pyridin-2-ylmethyl)-2,3-dihydro-1H-isoindol-1-one] | 60.8 nM
CC(C)CCn1cc(-c2ccc(Cl)nc2-c2ccc3c(c2)C(=O)N(Cc2ccccc2F)C3)cn1 [Example 113, 6-{6-chloro-3-[1-(3-methylbutyl)-1H-pyrazol-4-yl]pyridin-2-yl}-2-(2-fluorobenzyl)-2,3-dihydro-1H-isoindol-1-one] | 54 nM
CC(C)CCn1cc(-c2cccnc2-c2ccc3c(c2)C(=O)N(C2CCC2)C3)cn1 [Example 116, 2-cyclobutyl-6-{3-[1-(3-methylbutyl)-1H-pyrazol-4-yl]pyridin-2-yl}-2,3-dihydro-1H-isoindol-1-one] | 84.6 nM
Cc1cn2ccc(-c3nc(C#N)ccc3-c3cnn(CCC(C)(C)F)c3)cc2n1 [Example 119, 5-[1-(3-fluoro-3-methylbutyl)-1H-pyrazol-4-yl]-6-(2-methylimidazo[1,2-a]pyridin-7-yl)pyridine-2-carbonitrile] | 55.9 nM
Cc1nc2cc(-c3ncc(F)cc3-c3cnn(CCC(C)(C)F)c3)ccc2n1C [Example 120, 5-(5-fluoro-3-(1-(3-fluoro-3-methylbutyl)-1H-pyrazol-4-yl)pyridin-2-yl)-1,2-dimethyl-1H-benzo[d]imidazole] | 401 nM
Cc1cn2ccc(-c3nc(C#N)ccc3-c3cnn(CC(C)(C)F)c3)cc2n1 [Example 122, 5-(1-(2-fluoro-2-methylpropyl)-1H-pyrazol-4-yl)-6-(2-methylimidazo[1,2-a]pyridin-7-yl)picolinonitrile] | 78.1 nM
C#Cc1ccc(-c2cnn(CC(C)(C)C)c2)c(-c2ccn3cc(C)nc3c2)n1 [Example 123, 7-(6-ethynyl-3-(1-neopentyl-1H-pyrazol-4-yl)pyridin-2-yl)-2-methylimidazo[1,2-a]pyridine] | 62.3 nM
N#Cc1ccc(-c2cnn(CC(F)C3CC3)c2)c(-c2ccn3ccnc3c2)n1 (centres unmarked) [Example 124, 5-(1-(2-cyclopropyl-2-fluoroethyl)-1H-pyrazol-4-yl)-6-(imidazo[1,2-a]pyridin-7-yl)picolinonitrile] | 60.5 nM
Cc1cn2ccc(-c3nc(C#N)ccc3-c3cnn(CC(C)(O)C(F)(F)F)c3)cc2n1 (centres unmarked) [Example 125, 6-(2-methylimidazo[1,2-a]pyridin-7-yl)-5-(1-(3,3,3-trifluoro-2-hydroxy-2-methylpropyl)-1H-pyrazol-4-yl)picolinonitrile] | 161 nM
Cc1cn2ccc(-c3nc(C#N)ccc3-c3cnn(CC(C)(C)CO)c3)cc2n1 [Example 127, 5-(1-(3-hydroxy-2,2-dimethylpropyl)-1H-pyrazol-4-yl)-6-(2-methylimidazo[1,2-a]pyridin-7-yl)picolinonitrile] | 139 nM
Cc1nc2cc(-c3nc(C#N)ccc3-c3cnn(C[C@]4(F)C[C@@H](F)C4)c3)ccc2n1C [Example 128, 5-(1-(((1s,3s)-1,3-difluorocyclobutyl)methyl)-1H-pyrazol-4-yl)-6-(1,2-dimethyl-1H-benzo[d]imidazol-5-yl)picolinonitrile] | 48 nM

Other lines, results leading:

EC50 | SMILES
45 nM | CN1Cc2ccc(-c3nc(C#N)ccc3-c3cnn(CC(C)(C)C(F)F)c3)cc2C1=O [Example 97, 5-[1-(3,3-difluoro-2,2-dimethylpropyl)-1H-pyrazol-4-yl]-6-(2-methyl-3-oxo-2,3-dihydro-1H-isoindol-5-yl)pyridine-2-carbonitrile]
40.8 nM | CC(C)(C)Cn1cc(-c2ccc(C(F)F)nc2-c2ccn3ccnc3c2)cn1 [Example 98, 7-{6-(difluoromethyl)-3-[1-(2,2-dimethylpropyl)-1H-pyrazol-4-yl]pyridin-2-yl}imidazo[1,2-a]pyridine]
44.7 nM | COCc1cn2ccc(-c3nc(C#N)ccc3-c3cnn(CC(C)(C)C)c3)cc2n1 [Example 104, 5-[1-(2,2-dimethylpropyl)-1H-pyrazol-4-yl]-6-[2-(methoxymethyl)imidazo[1,2-a]pyridin-7-yl]pyridine-2-carbonitrile]
32.1 nM | CC(C)(Cn1cc(-c2ccc(C#N)nc2-c2ccn3ccnc3c2)cn1)C(F)F [Example 107, 5-[1-(3,3-difluoro-2,2-dimethylpropyl)-1H-pyrazol-4-yl]-6-imidazo[1,2-a]pyridin-7-ylpyridine-2-carbonitrile]
40.2 nM | CC(C)CCn1cc(-c2ccc(Cl)nc2-c2ccc3c(c2)C(=O)NC3)cn1 [Example 110, 6-(6-chloro-3-(1-isopentyl-1H-pyrazol-4-yl)pyridin-2-yl)isoindolin-1-one]
40.2 nM | CC(C)CCn1cc(-c2ccc(Cl)nc2-c2ccc3c(c2)C(=O)N(CC(F)(F)F)C3)cn1 [Example 111, 6-chloro-3-(1-isopentyl-1H-pyrazol-4-yl)-2-(3-oxo-2-(2,2,2-trifluoroethyl)isoindolin-5-yl)pyridin-1-ium]
22.8 nM | CC(C)CCn1cc(-c2ccc(Cl)nc2-c2ccc3c(c2)C(=O)N(Cc2ccc(O)cc2)C3)cn1 [Example 114, 6-{6-chloro-3-[1-(3-methylbutyl)-1H-pyrazol-4-yl]pyridin-2-yl}-2-(4-hydroxybenzyl)-2,3-dihydro-1H-isoindol-1-one]
31.7 nM | CN1Cc2ccc(-c3nc(Cl)ccc3-c3cnn(CC4CCCCC4)c3)cc2C1=O [Example 115, 6-{6-chloro-3-[1-(cyclohexylmethyl)-1H-pyrazol-4-yl]pyridin-2-yl}-2-methyl-2,3-dihydro-1H-isoindol-1-one]
33.4 nM | CC(C)(C)Cn1cc(-c2ccc(C#N)nc2-c2ccn3c(Cl)cnc3c2)cn1 [Example 117, 6-(3-chloroimidazo[1,2-a]pyridin-7-yl)-5-(1-neopentyl-1H-pyrazol-4-yl)picolinonitrile]
30.7 nM | Cc1cn2ccc(-c3nc(C#N)ccc3-c3cnn(CC4(F)CCC4)c3)cc2n1 [Example 118, 5-(1-((1-fluorocyclobutyl)methyl)-1H-pyrazol-4-yl)-6-(2-methylimidazo[1,2-a]pyridin-7-yl)picolinonitrile]
39.1 nM | Cc1cn2ccc(-c3nc(C#N)ccc3-c3cnn(CC(C)C(F)(F)F)c3)cc2n1 (centres unmarked) [Example 126, 6-(2-methylimidazo [1,2-a]pyridin-7-yl)-5-(1-(3,3,3-trifluoro-2-methylpropyl)-1H-pyrazol-4-yl)picolinonitrile]

same assay, conditions: read-out: HuM4PAM

EC50 | SMILES
107 nM | CC(C)(F)Cn1cc(-c2ccc(C#N)nc2-c2ccn3ccnc3c2)cn1 [Example 121, 5-(1-(2-fluoro-2-methylpropyl)-1H-pyrazol-4-yl)-6-(imidazo[1,2-a]pyridin-7-yl)picolinonitrile]
